Results published in PMC7529935 (European journal of medicinal chemistry, 2020).

Legend:
[1] = system: HIV/EBOV pseudovirions (EBOV GP); type: cell-based, Zaire Ebolavirus
[2] = system: HIV/MARV pseudovirions (MARV GP); test: microbe, parasite or virus in culture; type: cell-based, Marburgvirus; details: Human immunodeficiency virus 1, A549, 48 h, read-out: IC50 for MARV

Structure (SMILES)	cytotoxicity (A549 cells)	antiviral activity (anti-filovirus, words) [1]	antiviral activity against EBOV [1]	IC50 [2] [µM]
Cc1c(Cc2ccc(OC(F)(F)F)cc2)c(=O)oc2cc(OCC(O)CNc3nccs3)ccc12 (centres unmarked) [Compound 56, 7-(2-hydroxy-3-(thiazol-2-ylamino)propoxy)-4-methyl-3-(4-(trifluoromethoxy)benzyl)-2H-chromen-2-one]	low cytotoxicity	strong activity		
Cc1c(Cc2ccccc2)c(=O)oc2cc(OCC(O)CNCCc3ccncc3)ccc12 (centres unmarked) [Compound 13, 3-benzyl-7-(2-hydroxy-3-((2-(pyridin-4-yl)ethyl)amino)propoxy)-4-methyl-2H-chromen-2-one]			best inhibitory activity on EBOV entry	
NC(=O)C1CCN(CC(O)COc2ccc3c(C4CC4)cc(=O)oc3c2)CC1 (centres unmarked) [Compound 55, 1-(3-((4-cyclopropyl-2-oxo-2H-chromen-7-yl)oxy)-2-hydroxypropyl)piperidine-4-carboxamide]		lost most of the antiviral activity		
Cc1cc(=O)oc2cc(OCC(O)CN3CCC(C(N)=O)CC3)ccc12 (centres unmarked) [Compound 19, 1-(2-hydroxy-3-((4-methyl-2-oxo-2H-chromen-7-yl)oxy)propyl)piperidine-4-carboxamide]		lost most of the activity		
Cc1c(Cc2ccc(OC(F)(F)F)cc2)c(=O)oc2cc(OCC(O)CN3CCC(C(N)=O)CC3)ccc12 (centres unmarked) [Compound 32, 1-(2-hydroxy-3-((4-methyl-2-oxo-3-(4-(trifluoromethoxy)benzyl)-2H-chromen-7-yl)oxy)propyl)piperidine-4-carboxamide]	low cytotoxicity		strongest antiviral activity against EBOV	1.5
